Experimental data taken from patent US5866397A, “Human protein tyrosine phosphatase OB protein” (Merck & Co., Inc., priority 1997, dated 1999).
Entries after “also recorded” stand apart in the source; their conditions may differ. Like-named read-outs stand apart in the source and are kept apart here.

Columns and labels:
[1] = test system: mononucleated TRAP positive cells; assay type: cell-based, mouse
[2] = test system: multinucleated TRAP positive osteoclast-like cells; assay: cells; assay type: cell-based, mouse
MB1.8 cells = assay: Osteoblast proliferation (thymidine incorporation) in mouse calvaria derived MB1.8 cells; assay type: cell-based; settings: micromolar concentrations
PTPε = PTPε (Mus musculus, UniProt P49446); assay: PTP enzymatic assay with recombinant GST-PTPε fusion protein (FDP substrate)
bone cells / osteoblasts = settings: cited from earlier work
rat osteoclasts = assay: cells; assay type: cell-based
[3] = test system: osteoblasts and bone marrow cells
bone resorption = settings: organ cultures; Krieger and Tashjian; cited from earlier work
PTP-OB = molecular target: T1, PTP-OB (Homo sapiens, UniProt Q13332); assay: PTP enzymatic assay with recombinant GST-PTP-OB fusion protein (FDP substrate); assay type: biochemical; settings: pH 5.65, FIG. 8
T1 construct: we expressed the cytoplasmic domain of PTP-OB and PTPε in bacteria as a GST-fusion protein; made in house; host or cells: bacteria (vector pGEX-2TX, Pharmacia)
T1 sequence (Q13332 1303-1928 isoform Q13332-3 C1437R/N1685K): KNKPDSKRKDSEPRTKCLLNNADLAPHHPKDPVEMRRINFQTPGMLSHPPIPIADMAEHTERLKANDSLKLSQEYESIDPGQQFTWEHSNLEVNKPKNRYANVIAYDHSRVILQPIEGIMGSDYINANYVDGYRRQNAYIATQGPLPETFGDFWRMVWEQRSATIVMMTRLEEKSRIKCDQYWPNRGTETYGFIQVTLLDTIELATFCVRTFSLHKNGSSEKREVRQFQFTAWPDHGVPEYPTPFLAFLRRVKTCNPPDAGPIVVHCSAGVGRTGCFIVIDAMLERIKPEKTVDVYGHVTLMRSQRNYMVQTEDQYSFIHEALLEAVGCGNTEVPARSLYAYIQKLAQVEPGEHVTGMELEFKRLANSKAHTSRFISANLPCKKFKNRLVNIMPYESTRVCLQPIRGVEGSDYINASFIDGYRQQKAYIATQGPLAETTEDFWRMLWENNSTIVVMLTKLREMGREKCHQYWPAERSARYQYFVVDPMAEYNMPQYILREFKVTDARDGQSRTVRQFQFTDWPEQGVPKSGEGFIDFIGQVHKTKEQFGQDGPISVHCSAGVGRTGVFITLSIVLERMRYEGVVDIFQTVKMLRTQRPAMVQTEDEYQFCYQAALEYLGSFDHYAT

[4] = substrate: O=C1OC2(c3ccc(OP(=O)(O)O)cc3Oc3cc(OP(=O)(O)O)ccc32)c2ccccc21; assay: purified protein, by the assay type; settings: other: FDP as substrate of GST-PTPε; pH 5.65

In the case of `COC1=C2C[C@@H](C)C[C@H](OC)[C@H](O)[C@@H](C)/C=C(\C)[C@H](OC(N)=O)[C@@H](OC)/C=C\C=C(/C)C(=O)NC(=CC1=O)C2=O` [geldanamycin], the “appearance/development of mononuclear TRAP positive cells” value [1] is reported as “completely blocked; also recorded: inhibited the development of mononuclear TRAP positive cells”, the “inhibition of formation of multinucleated TRAP positive cells” value [2] is reported as “complete inhibition” and the “inhibition of osteoclast formation, in words” value [2] is reported as “potent inhibitor”. The IC50 ([2]; Mus musculus, Osteoclast-like, read-out: IC50, osteoclast formation) was 0.05 µg/mL.

With `CC(O)(P(=O)(O)O)P(=O)(O)O` [etidronate] the “thymidine incorporation (mitogenesis) of quiescent osteoblasts” value (“thymidine incorporation (mitogenesis)” for short) (MB1.8 cells) was “stimulated thymidine incorporation” and the IC50 (PTPε) was ~400 nM.

In the case of `[O]=[V]([O-])([O-])[O-]` [orthovanadate], the “thymidine incorporation (mitogenesis)” value (MB1.8 cells) is given as “stimulated thymidine incorporation”, the “bone cell / osteoblast proliferation” value (bone cells / osteoblasts) is given as “can stimulate osteoblast proliferation; also recorded: stimulated cell proliferation; also recorded: stimulation of cell proliferation” and the “inhibition of bone resorption, in words” value (rat osteoclasts) is given as “potent inhibitors”. The “reduction of the number of resorption pits” value (rat osteoclasts; osteoclasts on bone slices, 1440 min, 10 µM) was 80%, the IC50 (rat osteoclasts; read-out: IC50, bone resorption) was 2000 nM and the “development of mononucleated TRAP positive cells” value [1] was “did not block”. For the same molecule, the “formation of mononucleated TRAP positive cells” value [1] was “produced mononucleated TRAP positive cells”, the “effects on the co-cultured osteoblasts” value [3] was “no ill effects” and the “toxicity for osteoblasts or bone marrow cells” value [3] was “no apparent toxicity”. For the same molecule, the “additional effect when added at earlier days of co-culture” value [2] was “small additional effect”, the “inhibition of formation of multinucleated TRAP positive cells” value [2] was “completely inhibited” and the “inhibition of formation of multinucleated TRAP positive cells, in words” value [2] was “completely inhibited”. For the same molecule, the “inhibition of formation of multinucleated osteoclastic cells when added at any time up to day six” value [2] was ≥ 90%, the “inhibition of formation of the fused TRAP positive cells, in words” value [2] was “markedly inhibited” and the “block of formation of multinucleated TRAP positive cells when added at day six of co-culture” value ([2]; bone marrow/osteoblast co-culture, 1440 min) was 80%. The IC50 ([2]; read-out: IC50, formation of multinucleated TRAP positive cells) was 2000 nM and the “stimulation of bone resorption induced by PTH” value (bone resorption) was “inhibited”.

For `NCCCC(O)(P(=O)(O)O)P(=O)(O)O` [alendronate], the “thymidine incorporation (mitogenesis)” value (MB1.8 cells) was “stimulated thymidine incorporation”, the inhibition at 10 µM (rat osteoclasts; Rattus norvegicus, Osteoclast, 24 h, read-out: reduction of the number of resorption pits) was 80% and the “development of mononucleated TRAP positive cells” value [1] was “did not block”. For the same molecule, the IC50 (PTP-OB) was 200 nM and the “inhibition of formation of multinucleated TRAP positive cells” value [2] was “completely inhibited”.

B1: PTPε (Mus musculus) (protein)
chain: RFRKQRKAVVSSNDKKMPNGILEEQEQQRVMLLSRSPSGPKKFFPIPVEHLEEEIRVRSADDCKRFREEFNSLPSGHIQGTFELANKEENREKNRYPNILPNDHCRVILSQVDGIPCSDYINASYIDGYKEKNKFIAAQGPKQETVNDFWRMVWEQRSATIVMLTNLKERKEEKCYQYWPDQGCWTYGNIRVCVEDCVVLVDYTIRKFCIHPQLPDSCKAPRLVSQLHFTSWPDFGVPFTPIGMLKFLKKVKTLNPSHAGPIVVHCSAGVGRTGTFIVIDAMMDMIHSEQKVDVFEFVSRIRNQRPQMVQTDVQYTFIYQALLEYYLYGDTELDVSSLERHLQTLHSTATHFDKIGLEEEFRKLTNVRIMKENMRTGNLPANMKKARVIQIIPYDFNRVILSMKRGQEFTDYINASFIDGYRQKDYFMATQGPLAHTVEDFWRMVWEWKSHTIVMLTEVQEREQDKCYQYWPTEGSVTHGDITIEIKSDTLSEAISVRDFLVTFKQPLARQEEQVRMVRQFHFHGWPEVGIPAEGKGMIDLIAAVQKQQQQTGNHPITVHCSAGAGRTGTFIALSNILERVKAEGLLDVFQAVKSLRLQRPHMVQTLEQYEFCYKVVQDFIDIFSDYANFK
For B1, the Km [4] was 70 µM.
